The source of these data is patent publication US20250230138A1, “COMPOUNDS HAVING A T-STRUCTURE FORMED BY AT LEAST FOUR CYCLES FOR USE IN THE TREATMENT OF CANCER AND OTHER INDICATIONS” (TheRas, Inc., priority 2022, published 2025).

Test [1] deals with Cys242 in human PIK3CA (157-299) (Homo sapiens (Human), UniProt P42336). Put plainly: Covalent modification assay using MALDI-TOF MS. The format is biochemical. The settings on record: 4 h reaction time point. Put shortly: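 PIK3CA (157-299) at 3.33 μM or 1 μM in 20 mM HEPES, 150 mM NaCl, 2 mM MgCl2, pH 7.3 was incubated with compound (from 10 mM DMSO stocks) in the dark at room temperature for 15 min, 30 min, 2 h or 4 h. Linear-mode MALDI-TOF peak heights gave percent modification.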

In test [2] the test system is pAKT in BT474 cells. Put plainly: Cell-based pAKT HTRF assay in BT474 cells. As to conditions: BT474 cells, 4 hr incubation, read-out: pAKT inhibition IC50 in BT474 cells. Summed up:
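The HTRF signal (excitation 320 nm, emission 615 nm) came from d2/Eu Cryptate antibodies added to lysates and incubated 4–24 h at room temperature. Those lysates were taken from cells treated for 4 hr with compound, top concentration 3 μM, in 0.25% DMSO.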
On the technique in general: TR-FRET usually uses a lanthanide donor and a delayed reading to cut background.

[3] abbreviates: 1 μM protein target, 1:5 protein to compound ratio (compounds 853-1279).
[4] abbreviates: 3.33 μM protein target, 1:7.5 protein to compound ratio (compounds 1-852).
The mark [5] stands for this setting: Homo sapiens, BT-474, Compounds 10-999.

Each structure is given as a SMILES string. pIC50: −log10 of the molar value. Where two headings read alike, the source gives them in different places.

Chain of Cys242 in human PIK3CA (157-299) (P42336 157-299): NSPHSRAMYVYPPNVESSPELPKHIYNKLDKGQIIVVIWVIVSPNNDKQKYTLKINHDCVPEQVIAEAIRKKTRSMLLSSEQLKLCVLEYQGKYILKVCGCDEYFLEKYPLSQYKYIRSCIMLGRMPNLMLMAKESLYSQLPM

Take `C=CC(=O)N1CCn2nc(-c3nc(-c4ccc5c(cnn5C)c4)c4ccsc4c3-c3c(F)cc(F)cc3OCCO)cc2C1C` (stereo not drawn) [Compound 1156]: the “% of modification” value in test [1] (setting [3]) is on record as “D (percent of modification <25%)”. In test [2] (Compounds 1000-1279), the pIC50 (commonly −log10 of the IC50, conventionally taken in molar units) was greater than 7.00.
For the compound `C=CC(=O)N1CCn2nc(-c3nc(-c4cnn(C)c4)c4ccsc4c3-c3c(F)cc(F)cc3OCC(C)O)cc2C1C` (stereo not drawn) [Compound 551], the “% of modification” value in test [1] (setting [4]) is “A (percent of modification of PIK3CA protein ≥75%)”. Also, the negative logarithm of the IC50 (pIC50) in test [2] (Compounds 10-999) is greater than 7.00.
With `C=CC(=O)N1CCn2nc(-c3nc(N4CC5(CCN(C)C5)C4)c4ccsc4c3-c3c(F)cc(F)cc3OCCOC)cc2C1C` (stereo not drawn) [Compound 1054], in test [1] (setting [3]), the “% of modification” value is listed as “C (25%≤percent of modification <50%)”. Besides, the pIC50 in test [2] (Compounds 1000-1279) was 6.00 to 7.00.
As for `C=CC(=O)N1CCc2nc(-c3nc(-c4ccc5c(c4)CCNCC5)c4ccsc4c3-c3ccc(F)cc3OCCOC)sc2C1` [Compound 121], in test [1] (setting [4]), the “% of modification” value is reported as “A (percent of modification of PIK3CA protein ≥75%)”. Besides, the pIC50 in test [2] (Compounds 10-999) is greater than 7.00.
The matching figures for `C=CC(=O)N1Cc2cc(-c3nc(-c4ccc5c(c4)CCN(C)C5)c4ccsc4c3-c3c(F)cc(F)cc3OC[C@@H](C)O)nn2[C@@H](C)C1` [Compound 590]: “A (percent of modification of PIK3CA protein ≥75%)” and greater than 7.00.
In the same order, the values of `C=CC(=O)N1CCc2ncc(-c3nc(-c4cnn(C)c4)c4ccsc4c3-c3c(F)cc(F)cc3OCCO)cc2C1` [Compound 395] are “A (percent of modification of PIK3CA protein ≥75%)” and greater than 7.00.
For `C=CC(=O)N1Cc2cc(-c3nc(-c4ccc5cnncc5c4)c4ccsc4c3-c3c(F)cc(F)cc3OCCO)nn2CC1C` (stereo not drawn) [Compound 853], the “% of modification” value in test [1] (setting [3]) is “A (percent of modification of PIK3CA protein ≥75%)”. The pIC50 in test [2] (Compounds 10-999) is greater than 7.00.
Consider `C=CC(=O)N1CCn2nc(-c3nc(-c4ccc(CCN(C)C)cc4)c4ccsc4c3-c3c(F)cc(F)cc3OCCOC)cc2C1C` (stereo not drawn) [Compound 1060], for which the “% of modification” value in test [1] (setting [3]) is “A (percent of modification of PIK3CA protein ≥75%)”. Moreover, the pIC50 in test [2] (Compounds 1000-1279) was greater than 7.00.
As to `C=CC(=O)N1Cc2cc(-c3nc(-c4ccc5cn(C)nc5c4)c4ccsc4c3-c3c(F)cc(F)cc3OC[C@@H](C)O)nn2C[C@H]1C` [Compound 752], in test [1] (setting [4]), the “% of modification” value is recorded as “A (percent of modification of PIK3CA protein ≥75%)”. Further, in test [2] (Compounds 10-999), the negative logarithm of the IC50 (pIC50) was greater than 7.00.
`C=CC(=O)N1CCn2nc(-c3nc(-c4ccn5ccnc5c4)c4ccsc4c3-c3c(F)cc(F)cc3OCCOC)cc2C1C` (stereo not drawn) [Compound 1040]: the “% of modification” value in test [1] (setting [3]) is listed as “A (percent of modification of PIK3CA protein ≥75%)”. For the same compound, in test [2] (Compounds 1000-1279), the negative-log IC50 (pIC50) is greater than 7.00.
The matching figures for `C=CC(=O)N1CCn2nc(-c3nc(-c4ccc5c(c4)C(=O)NC5)c4ccsc4c3-c3c(F)cc(F)cc3OCC(C)(C)O)cc2[C@H]1C` [Compound 1130]: “A (percent of modification of PIK3CA protein ≥75%)” and greater than 7.00.
In the same order, the values of `C=CC(=O)N1CCn2nc(-c3nc(-c4ccn5cncc5c4)c4ccsc4c3-c3c(F)cc(F)cc3OCCOC)cc2C1C` (stereo not drawn) [Compound 1074] are “A (percent of modification of PIK3CA protein ≥75%)” and greater than 7.00.
The matching figures for `C=CC(=O)N1CCn2nc(-c3nc(-c4ccc5c(c4)CN(CC(F)F)CC5)c4ccsc4c3-c3c(F)cc(F)cc3OCCOC)cc2C1C` (stereo not drawn) [Compound 1248]: “A (percent of modification of PIK3CA protein ≥75%)” and 6.00 to 7.00.
For `C=CC(=O)N1CCn2nc(-c3nc(-c4cnn(C)c4)c4ccsc4c3-c3ccc(F)cc3OC(C)C)cc2C1` [Compound 200, 1-[2-[7-(4-fluoro-2-isopropoxy-phenyl)-4-(1-methylpyrazol-4-yl)thieno[3,2-c]pyridin-6-yl]-6,7-dihydro-4H-pyrazolo[1,5-a]pyrazin-5-yl]prop-2-en-1-one], in test [1] (setting [4]), the “% of modification” value is reported as “A (percent of modification of PIK3CA protein ≥75%)”. In test [2] (setting [5]), the pIC50 was greater than 7.00.
Regarding `C=CC(=O)N1CCc2cc(-c3nc(-c4cnc5c(c4)CNC(=O)C5)c4ccsc4c3-c3c(F)cc(F)cc3OCCOC)nn2CC1` [Compound 1005], the “% of modification” value in test [1] (setting [3]) was “D (percent of modification <25%)”. Besides, the pIC50 in test [2] (Compounds 1000-1279) is less than 6.00.
For `C=CC(=O)N1CCc2ncc(-c3nc(-c4cnc5c(c4)CNC(=O)C5)c4ccsc4c3-c3ccc(F)cc3OCCOC)cc2C1` [Compound 117], the “% of modification” value in test [1] (setting [4]) is “A (percent of modification of PIK3CA protein ≥75%)”. Moreover, the pIC50 in test [2] (Compounds 10-999) is greater than 7.00.
In the same order, the values of `C=CC(=O)N1Cc2cc(-c3nc(-c4ccc5nn(C)cc5c4)c4ccsc4c3-c3c(F)cc(F)cc3OC)nn2C[C@H]1C` [Compound 821] are “A (percent of modification of PIK3CA protein ≥75%)” and greater than 7.00.
Take `C=CC(=O)N1CC(n2cc(-c3nc(-c4ccc5c(c4)CCNC5)c4ccsc4c3-c3ccc(F)cc3OC)ccc2=O)C1` [Compound 110, 5-[7-(4-fluoro-2-methoxy-phenyl)-4-(1,2,3,4-tetrahydroisoquinolin-6-yl)thieno[3,2-c]pyridin-6-yl]-1-(1-prop-2-enoylazetidin-3-yl)pyridin-2-one]: the “% of modification” value in test [1] (setting [4]) is given as “A (percent of modification of PIK3CA protein ≥75%)”. Also, the pIC50 in test [2] (setting [5]) is 6.00 to 7.00.
Turning to `C=CC(=O)N1CCn2nc(-c3nc(-c4ccc5c(c4)CNC(=O)C54CC4)c4ccsc4c3-c3c(F)cc(F)cc3OCCOC)cc2C1C` (stereo not drawn) [Compound 1083], in test [1] (setting [3]), the “% of modification” value is on record as “A (percent of modification of PIK3CA protein ≥75%)”. In addition, in test [2] (Compounds 1000-1279), the pIC50 is greater than 7.00.
As for `C=C(F)C(=O)N1Cc2cc(-c3nc(-c4ccc5c(c4)CCN(C)C5)c4ccsc4c3-c3c(F)cc(F)cc3OC[C@@H](C)O)nn2C[C@H]1C` [Compound 575], in test [1] (setting [4]), the “% of modification” value is recorded as “D (percent of modification <25%)”. Also, the pIC50 in test [2] (Compounds 10-999) is 6.00 to 7.00.
The matching figures for `C=CC(=O)N1CCn2nc(-c3nc(-c4ccc5c(c4)CNC5=O)c4ccsc4c3-c3ccc(F)cc3OC(C)C)cc2C1` [Compound 287]: “A (percent of modification of PIK3CA protein ≥75%)” and greater than 7.00.
The matching figures for `C=CC(=O)N1Cc2cc(-c3nc(-c4cnc5c(c4)CN(C)C5=O)c4ccsc4c3-c3c(F)cc(F)cc3OCCOC)nn2[C@@H](C)C1` [Compound 506]: “A (percent of modification of PIK3CA protein ≥75%)” and greater than 7.00.
In the same order, the values of `C=CC(=O)N1CCn2nc(-c3nc(-c4ccc5c(cnn5C)c4)c4ccsc4c3-c3c(F)cc(F)cc3OCCO)cc2[C@@H]1C` [Compound 663, 1-((S)-2-((S)-7-(2,4-difluoro-6-(2-hydroxyethoxy)phenyl)-4-(1-methyl-1H-indazol-5-yl)thieno[3,2-c]pyridin-6-yl)-4-methyl-6,7-dihydropyrazolo[1,5-a]pyrazin-5(4H)-yl)prop-2-en-1-one] are “A (percent of modification of PIK3CA protein ≥75%)” and greater than 7.00.
In the case of `C=CC(=O)N1CC(n2cc(-c3nc(-c4ccc5c(c4)CCNCC5)c4ccsc4c3-c3ccc(F)cc3OC)cn2)C1` [Compound 102], the “% of modification” value in test [1] (setting [4]) was “A (percent of modification of PIK3CA protein ≥75%)”. In test [2] (Compounds 10-999), the pIC50 is 6.00 to 7.00.
In the case of `C=CC(=O)N1CCn2nc(-c3nc(-c4ccc5c(c4)CNC(=O)C54CC4)c4ccsc4c3-c3c(F)cc(F)cc3OCCO)cc2C1C` (stereo not drawn) [Compound 1119], the “% of modification” value in test [1] (setting [3]) is on record as “A (percent of modification of PIK3CA protein ≥75%)”. In test [2] (Compounds 1000-1279), the pIC50 is greater than 7.00.
Turning to `C=CC(=O)N1CCn2nc(-c3nc(-c4ccc5c(c4)CN(C)C(=O)C5)c4ccsc4c3-c3c(F)cc(F)cc3OCCOC)cc2[C@@H]1C` [Compound 975], the “% of modification” value in test [1] (setting [3]) is recorded as “D (percent of modification <25%)”. For the same compound, the pIC50 in test [2] (Compounds 10-999) is greater than 7.00.
Consider `C=CC(=O)N1CCn2nc(-c3nc(-c4cnc5c(c4)CN(C(C)C)CC5)c4ccsc4c3-c3c(F)cc(F)cc3OCCOC)cc2C1C` (stereo not drawn) [Compound 1093], for which the “% of modification” value in test [1] (setting [3]) was “A (percent of modification of PIK3CA protein ≥75%)”. Moreover, the pIC50 in test [2] (Compounds 1000-1279) is greater than 7.00.
Take `C=CC(=O)N1CCc2nc(-c3nc(-c4ccc5oc(C)nc5c4)c4ccsc4c3-c3c(F)cc(F)cc3OCCOC)sc2C1` [Compound 428]: in test [1] (setting [4]), the “% of modification” value is “A (percent of modification of PIK3CA protein ≥75%)”. In addition, the pIC50 in test [2] (Compounds 10-999) was greater than 7.00.
With `C=CC(=O)N1Cc2cc(-c3nc(-c4ccc5c(c4)N(C)C(=O)C5)c4ccsc4c3-c3c(F)cc(F)cc3OCCOC)nn2C[C@H]1C` [Compound 692], the “% of modification” value in test [1] (setting [4]) is reported as “A (percent of modification of PIK3CA protein ≥75%)”. In addition, the pIC50 in test [2] (Compounds 10-999) was greater than 7.00.
`C=CC(=O)N1C[C@H](C)n2nc(-c3nc(-c4ccc5c(c4)CCN(C)C5)c4ccsc4c3-c3c(F)cc(F)cc3OCCOC)cc2[C@@H]1C` [Compound 601, 1-[(4S,7S)-2-[7-[2,4-difluoro-6-(2-methoxyethoxy)phenyl]-4-(2-methyl-3,4-dihydro-1H-isoquinolin-6-yl)thieno[3,2-c]pyridin-6-yl]-4,7-dimethyl-6,7-dihydro-4H-pyrazolo[1,5-a]pyrazin-5-yl]prop-2-en-1-one]: the “% of modification” value in test [1] (setting [4]) was “A (percent of modification of PIK3CA protein ≥75%)”. Moreover, the pIC50 in test [2] (setting [5]) was greater than 7.00.
